Test results taken from ChEMBL document CHEMBL4433235, “Discovery of piperazic acid peptide deformylase inhibitors with in vivo activity for respiratory tract and skin infections” (Bioorg Med Chem Lett, 2019).
≈ marks a conversion by molar mass, not a printed value.

Assays:
[1] = tested on: Streptococcus pneumoniae; assay: Antimicrobial activity against Streptococcus pneumoniae 1629; format: functional
[2] = Inhibition of Haemophilus influenzae PDF by absorbance detection assay
[3] = tested on: Staphylococcus aureus; assay: Antimicrobial activity against Staphylococcus aureus; format: functional
[4] = tested on: Staphylococcus aureus; assay: Antimicrobial activity against Staphylococcus aureus Oxford; format: functional
[5] = target: T1, Peptide deformylase (Staphylococcus aureus, UniProt P68826); assay: Inhibition of Staphylococcus aureus PDF by absorbance detection assay
T1 sequence (P68826 whole entry): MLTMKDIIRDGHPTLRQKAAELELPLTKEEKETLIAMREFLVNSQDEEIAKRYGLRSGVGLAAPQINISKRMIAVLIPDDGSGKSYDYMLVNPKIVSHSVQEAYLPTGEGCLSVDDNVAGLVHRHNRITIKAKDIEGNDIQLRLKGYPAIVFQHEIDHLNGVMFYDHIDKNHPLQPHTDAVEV

[6] = tested on: Streptococcus pneumoniae; assay: Antimicrobial activity against Streptococcus pneumoniae; format: functional
[7] = Solubility of compound by chemiluminescent nitrogen detection assay; format: physicochemical
[8] = Chromatographic hydrophobicity index, log D of compound at pH 7.4; format: physicochemical; settings: buffer
[9] = tested on: Haemophilus influenzae; assay: Antimicrobial activity against Haemophilus influenzae; format: functional
[10] = Inhibition of Streptococcus pneumoniae PDF by absorbance detection assay
[11] = tested on: Haemophilus influenzae; assay: Antimicrobial activity against Haemophilus influenzae Q1; format: functional
[12] = Inhibition of Haemophilus influenzae PDF by fluorescence detection assay
[13] = target: T1, Peptide deformylase; assay: Inhibition of Staphylococcus aureus PDF by fluorescence detection assay
[14] = Inhibition of Streptococcus pneumoniae PDF by fluorescence detection assay
[15] = Cmax in rat at 5 mg/kg, po; format: ADME, organism-based; parameters: dose 5 mg/kg, route oral; settings: in vivo
[16] = Clearance in rat at 3 mg/kg, iv; format: ADME, organism-based; settings: in vivo
[17] = Half life in rat at 5 mg/kg, po; format: ADME, organism-based; settings: in vivo
[18] = Half life in rat at 3 mg/kg, iv; format: ADME, organism-based; settings: in vivo
[19] = Volume of distribution at steady state in rat at 3 mg/kg, iv; format: ADME, organism-based; settings: in vivo, read-out: Vdss
[20] = AUC in rat at 5 mg/kg, po; format: ADME, organism-based; settings: in vivo
[21] = AUC in rat at 3 mg/kg, iv; format: ADME, organism-based; settings: in vivo
[22] = Oral bioavailability in rat at 5 mg/kg; format: ADME, organism-based; settings: in vivo
[23] = tested on: Streptococcus pneumoniae; assay: Antimicrobial activity against Streptococcus pneumoniae Ery-2 infected in respiratory tract infection rat model assessed as log reduction in bacterial CFU at 150 mg/kg, po BID dosed 1 hr post infection and measured for 96 hrs; format: functional
[24] = tested on: Streptococcus pneumoniae; assay: Antimicrobial activity against Streptococcus pneumoniae Ery-2; format: functional
[25] = tested on: Streptococcus pneumoniae; assay: Antimicrobial activity against Streptococcus pneumoniae Ery-2 infected in respiratory tract infection rat model assessed as log reduction in bacterial CFU at 300 mg/kg, po BID dosed 1 hr post infection and measured for 96 hrs; format: functional

SMILES	MIC [1] [µg/mL]	IC50 [2] [nM]	MIC [4] [µg/mL]	IC50 [5] [nM]	solubility kinetic [7] [µM]	CHI [8]	IC50 [10] [nM]	MIC [11] [µg/mL]	other results
O=CN(O)C[C@@H](CC1CCCC1)C(=O)N1NCCC[C@H]1C(=O)N1CCCCC1	4 (≈ 10.1 µM)	8	1 (≈ 2.53 µM)	6	> 739	3.3	2	2 (≈ 5.07 µM)	–
CCCNC(=O)[C@@H]1CCCNN1C(=O)[C@H](CC1CCCC1)CN(O)C=O	4 (≈ 10.9 µM)	5	4 (≈ 10.9 µM)	11	> 544	3.19	3	0.5 (≈ 1.36 µM)	–
CN1CCN(c2cncc(NC(=O)[C@@H]3CCCNN3C(=O)[C@H](CC3CCCC3)CN(O)C=O)n2)CC1	4 (≈ 7.96 µM)	–	16 (≈ 31.8 µM)	–	> 359	2.57	–	2 (≈ 3.98 µM)	IC50 [13]: 10 nM; IC50 [14]: 2 nM
CCc1nnc(NC(=O)[C@@H]2CCCNN2C(=O)[C@H](CC2CCCC2)CN(O)C=O)s1	1 (≈ 2.28 µM)	2	1 (≈ 2.28 µM)	1	530 (≈ 232 µg/mL)	3.38	0.4	1 (≈ 2.28 µM)	Cmax [15]: 711 ng/mL; clearance [16]: 20 mL/min/kg; MIC90 [3]: 2 µg/mL (≈ 4.56 µM); half-life [17]: 4.7 h; Activity [23]: 0.8 log10CFU/ml; half-life [18]: 6.7 h; Vd [19]: 4 L/kg; AUC [20]: 1580 ng·h/mL; MIC90 [6]: 1 µg/mL (≈ 2.28 µM); MIC90 [9]: 2 µg/mL (≈ 4.56 µM); AUC [21]: 2140 ng·h/mL; MIC [24]: 0.5 µg/mL (≈ 1.14 µM); Activity [25]: 1.7 log10CFU/ml; bioavailability [22]: 36%
Cc1nc(NC(=O)[C@@H]2CCCNN2C(=O)[C@H](CC2CCCC2)CN(O)C=O)sc1C	1 (≈ 2.29 µM)	1	0.25 (≈ 0.571 µM)	0.63	381 (≈ 167 µg/mL)	4.29	0.2	2 (≈ 4.57 µM)	Cmax [15]: 349 ng/mL; clearance [16]: 49 mL/min/kg; MIC90 [3]: 0.5 µg/mL (≈ 1.14 µM); half-life [17]: 3.8 h; half-life [18]: 1.1 h; Vd [19]: 1.6 L/kg; AUC [20]: 700 ng·h/mL; MIC90 [6]: 0.5 µg/mL (≈ 1.14 µM); MIC90 [9]: 2 µg/mL (≈ 4.57 µM); AUC [21]: 1030 ng·h/mL; bioavailability [22]: 41%

More lines, main results first:

MIC [1] [µg/mL]	IC50 [2] [nM]	MIC [4] [µg/mL]	IC50 [5] [nM]	solubility kinetic [7] [µM]	CHI [8]	IC50 [10] [nM]	MIC [11] [µg/mL]	SMILES	other results
2 (≈ 4.94 µM)	6	2 (≈ 4.94 µM)	2	> 464	2.7	0.3	1 (≈ 2.47 µM)	O=CN(O)C[C@@H](CC1CCCC1)C(=O)N1NCCC[C@H]1C(=O)Nc1ccncn1	MIC90 [3]: 1 µg/mL (≈ 2.47 µM); MIC90 [6]: 2 µg/mL (≈ 4.94 µM); MIC90 [9]: 2 µg/mL (≈ 4.94 µM)
8 (≈ 19.2 µM)	–	8 (≈ 19.2 µM)	–	483 (≈ 202 µg/mL)	2.94	–	2 (≈ 4.79 µM)	Cc1cccnc1NC(=O)[C@@H]1CCCNN1C(=O)[C@H](CC1CCCC1)CN(O)C=O	IC50 [12]: 79 nM; IC50 [13]: 16 nM; IC50 [14]: 10 nM
2 (≈ 4.97 µM)	2	4 (≈ 9.94 µM)	5	> 534	4.82	1	1 (≈ 2.48 µM)	O=CN(O)C[C@@H](CC1CCCC1)C(=O)N1NCCC[C@H]1C(=O)Nc1ccccc1	–
1 (≈ 2.23 µM)	–	1 (≈ 2.23 µM)	–	> 515	3.65	–	1 (≈ 2.23 µM)	CN(C)c1cncc(NC(=O)[C@@H]2CCCNN2C(=O)[C@H](CC2CCCC2)CN(O)C=O)n1	Cmax [15]: 53 ng/mL; IC50 [12]: 16 nM; clearance [16]: 73 mL/min/kg; half-life [17]: 10 h; half-life [18]: 7 h; Vd [19]: 13 L/kg; AUC [20]: 169 ng·h/mL; IC50 [13]: 5 nM; AUC [21]: 685 ng·h/mL; bioavailability [22]: 15%; IC50 [14]: 0.79 nM
4 (≈ 9.89 µM)	4	1 (≈ 2.47 µM)	2	303 (≈ 123 µg/mL)	2.69	0.6	0.5 (≈ 1.24 µM)	O=CN(O)C[C@@H](CC1CCCC1)C(=O)N1NCCC[C@H]1C(=O)Nc1cccnn1	–
8 (≈ 19.8 µM)	3	2 (≈ 4.94 µM)	1	> 586	2.87	0.3	0.25 (≈ 0.618 µM)	O=CN(O)C[C@@H](CC1CCCC1)C(=O)N1NCCC[C@H]1C(=O)Nc1cnccn1	–
